{"source": "patent US20210060044A1", "about": "“METHODS FOR TREATING BLADDER CANCER BY ACTIVATION OF HEDGEHOG SIGNALING USING A M[…]” (POSTECH Research and Business Development Foundation, priority 2019, published 2021)", "key": {"Shh gene [1]": {"test_system": "Shh gene", "settings": "orthotopic BBN-induced mouse tumor, 1 mg per kg every other day for 2 weeks", "description": "(§1) Human or mouse bladder samples were snap-frozen in liquid nitrogen, homogenized with a mortar and a pestle, and RNA was extracted using an RNeasy Plus Mini Kit (Qiagen).\n(§2) Subsequently, the RNA samples were dissolved in RNase-free water, and their concentration and purity were measured with a spectrophotometer. The TAE/formamide electrophoresis method (Masek et al., 2005) was used for RNA quality analysis. For quantitative RT-PCR of mRNA transcripts, first-strand cDNA was synthesized using a high-capacity cDNA reverse transcriptase kit (Applied Biosystems) containing oligo dT. Quantitative RT-PCR was performed using SYBR Green Supermix (Applied Biosystems) and a one-step cycler (Applied Biosystems), and gene expression was normalized to the housekeeping gene HPRT1."}, "BBN-induced tumors": {"test_system": "BBN-induced tumors", "settings": "TM three days, transplantation, treatment 1.5 months", "method": "(§6) For a gene deletion experiment, Col1a2^CreER (RRID: IMSR_JAX: 029235) mice were mated with the Smo^flox/flox (RRID: IMSR_JAX: 007926) or Gli2^flox/flox (RRID: IMSR_JAX: 004526) strains, thereby obtaining Col1a2^CreER; Smo^flox/flox or Col1a2^CreER;Gli2^flox/flox mice.\nThe mice were administered 8 mg of tamoxifen (TM; Sigma) per 30 g of body weight by oral gavage for three consecutive days. Male mice aged 8 to 10 weeks were used. […] The dosing duration is described in the brief description of the drawings. In each experiment, the mice were randomly selected for a drug/TM or control-treated group. The experiments involving mice were performed under isoflurane anesthesia.\nBladder tumors were dissociated into single cells as described above. The cells were resuspended in 80 ml DMEM containing 50% Matrigel (BD Bioscience), and then submucosally injected into the anterior aspect of the bladder dome using a 29-gauge insulin syringe. An abdominal incision and skin were closed with a 4-0 nylon suture, and the surgical site was disinfected with alcohol. Bladder tumor organoids were selected, and resuspended in a 50% organoid medium and 50%"}, "[2]": {"test_system": "luminal markers (FOXA1 and GATA3) and basal markers (CDH3 and KRT6A)", "settings": "J82 tumor xenografts", "description": "as §2\n(§3) To investigate the functional role of SHH expression in the growth of human bladder tumors and the effects of the Hh/BMP signaling feedback between tumors and the stroma on the subtype conversion of human muscle-invasive urothelial carcinoma, xenografts in which J82 cells were orthotopically injected into immunocompromised mice (NOD/SCID/IL2Rgnull) (14 mice) were treated with 5′-azacitidine for one month, and orthotopic xenografts in the mice treated with the vehicle control (7 mice) or 5′-azacitidine (7 mice) were subjected to H&E staining."}, "[3]": {"test_system": "luminal and basal signatures", "settings": "tumor allografts, RNA-Seq", "description": "Total RNA was extracted with a TRIzol reagent (Thermo Fisher) according to the manufacturer's instructions. RNA-seq libraries were constructed using the TruSeq sample prep kit V2 (Illumina). […] The RNA-seq libraries were sequenced using a NextSeq platform with 75-bp single-end reads.\nDifferentially expressed genes were analyzed using Cufflinks tools (Trapnell et al., 2012). From all annotated genes, genes were removed when the rpkm average of all sequenced samples is less than 1.0, such that the depth to which the genes are assigned may be low. GSEA was performed according to the instructions (RRID: SCR_003199). To generate a customized gene set for a luminal marker and a basal marker, a representative gene for each signature was obtained from a previous study (Damrauer et al., 2014). The RNA-seq data set used herein was deposited in NCBI GEO (Accession No.: GSE129441).\nIn addition, using standard luminal and basal signatures obtained from previous research, GSEA of tumor allografts treated with the vehicle control and 5′-azacitidine from RNA-Seq data was performed."}, "J82 cells": {"test_system": "J82 cells", "settings": "J82 orthotopic xenograft, treated one month; vehicle: full-fledged muscle-invasive carcinoma", "description": "as §3"}, "[4]": {"test_system": "luminal markers (Upk1a, Upk1b, Upk2, Upk3a, Upk3b, Krt20, Krt18)", "settings": "tumor allografts; normalized to Krt5", "description": "as §1, §2\n(§4) To evaluate the effect of DNA methyltransferase inhibition on the growth of bladder cancer under immunocompromised conditions, nude mice (14 mice) orthotopically injected with BBN-induced bladder tumor cells were divided into a vehicle control (7 mice) and a 5′-azacitidine-treated group (7 mice), and then treated with a vehicle and 5′-azacitidine for 2 weeks, respectively. In addition, allograft sections of the vehicle control or 5′-azacitidine-treated mice were subjected to H&E staining, and the experimental scheme is shown in FIG. 4A."}, "[5]": {"test_system": "CpG shore upstream of the CpG island of the Shh promoter region", "settings": "1 mg per kg every other day for 2 weeks; vehicle control 62%", "method": "(§7) The mice were administered 8 mg of tamoxifen (TM; Sigma) per 30 g of body weight by oral gavage for three consecutive days. Male mice aged 8 to 10 weeks were used. […] In each experiment, the mice were randomly selected for a drug/TM or control-treated group. The experiments involving mice were performed under isoflurane anesthesia.\nThe DNA methylation status of mouse and human Shh was confirmed using genomic DNA bisulfite sequencing. For bisulfite conversion, 1 μg of genomic DNA was converted using a MethylEdge Bisulfite Conversion System (Promega) according to the manufacturer's instructions. The genomic sequences of the regulatory regions of mouse Shh and human SHH were obtained from the NCBI nucleotide database (Mus musculus: NC_000071.6, Homo sapiens: NG_007504.2), and the CpG island (island) and CpG shores in the regulatory region were identified using Methprimer 2.0 (Li and Dahiya, 2002) (RRID: SCR_010269). The 2kb regions upstream and downstream of the CpG island were referred to as a “CpG upshore” and a “CpG downshore,” respectively. […]\n(§8) The sequencing data was assembled using SnapGene software (https://snapgene.com/, RRID: SCR_015053) and the MUSCLE: multiple sequence alignment tool (haps://www.ebi.ac.uk/Tools/msa/muscle/ RRID: SCR_011812). […] The methylated CpG sites were counted and distinguished from unmethylated CpG sites."}, "[6]": {"test_system": "BBN-induced bladder tumor cells", "settings": "nude mice, treated 2 weeks", "excerpt": "as §4"}, "Ck18": {"test_system": "Ck18", "settings": "tumor allografts, nude mice", "excerpt": "as §4"}, "[7]": {"test_system": "CpG shore upstream of the CpG island of the Shh promoter region", "settings": "tumor organoids, 1 μM for four consecutive days; vehicle control 73%", "method": "The DNA methylation status of mouse and human Shh was confirmed using genomic DNA bisulfite sequencing. For bisulfite conversion, 1 μg of genomic DNA was converted using a MethylEdge Bisulfite Conversion System (Promega) according to the manufacturer's instructions. The genomic sequences of the regulatory regions of mouse Shh and human SHH were obtained from the NCBI nucleotide database (Mus musculus: NC_000071.6, Homo sapiens: NG_007504.2), and the CpG island (island) and CpG shores in the regulatory region were identified using Methprimer 2.0 (Li and Dahiya, 2002) (RRID: SCR_010269). […]\nas §8\nBBN-induced bladder tumors were minced, and then incubated in DMEM (Gibco) containing collagenase I and II (20 mg/ml each) and thermolysin (250 KU/ml) at 37° C. for 2 hours, followed by 5-minute trituration every 30 minutes. […] After lysis of red blood cells in ACK lysis buffer (Gibco), the cells were washed with DMEM containing 10% fetal bovine serum (Millipore) and counted using a hemocytometer (Sigma). […]"}, "[8]": {"test_system": "BBN-induced muscle-invasive urothelial carcinoma", "settings": "Col1a2CreER;Smoflox/flox or Col1a2CreER;Gli2flox/flox mice, BBN 6 months", "method": "as §6\nThe mice were administered 8 mg of tamoxifen (TM; Sigma) per 30 g of body weight by oral gavage for three consecutive days. Male mice aged 8 to 10 weeks were used. […] In each experiment, the mice were randomly selected for a drug/TM or control-treated group. The experiments involving mice were performed under isoflurane anesthesia. All procedures were performed according to a protocol approved by the Institutional Animal Care and Use Committee at POSTECH (IACUC number: POSTECH-2017-0094).\n(§9) 0.1% N-butyl-N-4-hydroxybutyl nitrosamine (BBN, TCI) was dissolved in drinking water, and the BBN-containing water was placed in a dark bottle, and provided ad libitum to mice for 4 to 6 months. The BBN-containing water was replaced twice a week. Bladders were collected and analyzed 4 to 6 months after BBN administration."}, "TCC-SUP": {"test_system": "TCC-SUP", "description": "(§5) Frozen human bladder tissue samples were obtained from the tissue bank of Seoul National University Hospital. For fresh bladder tumor samples, 0.5 to 1-cm^3 bladder tissue specimens were obtained from patients undergoing cystectomy or TURBT according to a protocol approved by the SNUH Institutional Review Board (IRB No.: 1607-135-777). Informed consent to patient information provision and publishing was obtained from the patients. The cancer tissues were evaluated before transport to POSTECH for additional analysis. For experiments for bladder cancer cell lines, J82 (RRID: CVCL_0359), T24 (RRID: CVCL_0554) and TCC (RRID: CVCL_1738) were used. All cell lines were authenticated by a STR profiling method, and tested negative for mycoplasma contamination.\nas §2"}, "T24": {"test_system": "T24", "description": "as §5, §2"}, "J82": {"test_system": "J82", "description": "as §5, §2"}, "[9]": {"test_system": "BBN-induced bladder tumor cells", "method": "as §7\nBladder tumors were dissociated into single cells as described above. The cells were resuspended in 80 ml DMEM containing 50% Matrigel (BD Bioscience), and then submucosally injected into the anterior aspect of the bladder dome using a 29-gauge insulin syringe.\n(§10) Tumor specimens were fixed in 10% neutral-buffered formalin for 12 hours, embedded in paraffin, and then sectioned into 4-um thick sections using a microtome. The slides were stained with hematoxylin and counter-stained with eosin for histological analysis. For immunostaining, tumor samples were embedded in an OCT compound (Tissue-Tek) and sectioned into 10-um-thick sections with a cryostat (Leica).\nTo evaluate the effect of the inhibition of DNA methyltransferase (DNMT) on the growth of bladder cancer, recently established transplantation models were used, and these models allow the proliferation of tumor cells transplanted in a microenvironment in vivo by injecting bladder cancer cells into the wall of the bladder dome."}, "Shh gene [10]": {"test_system": "Shh gene", "settings": "tumor organoids, 1 μM for four consecutive days", "description": "as §2"}, "[11]": {"test_system": "BBN-induced invasive carcinoma", "settings": "BBN 4 months, then treatment 2 months with continued BBN; found in vehicle control", "method": "as §7, §9, §10"}}, "note": "Where two headings read alike, the source gives them in different places.", "data": [{"smiles": "Nc1ncn([C@@H]2O[C@H](CO)[C@@H](O)[C@H]2O)c(=O)n1", "note": "[5′-azacitidine]", "values": [{"measurement": "Shh gene expression level, increase compared to the vehicle control", "setting": "Shh gene [1]", "result": 11, "unit": "fold"}, {"measurement": "anticancer propagation effect in strains with genetically inhibited stromal Hh signaling pathway", "setting": "BBN-induced tumors", "result": "disappeared"}, {"measurement": "basal marker CDH3 expression, decrease compared with the vehicle", "setting": "[2]", "result": 6, "unit": "fold"}, {"measurement": "basal marker KRT6A expression, decrease compared with the vehicle", "setting": "[2]", "result": 9, "unit": "fold"}, {"measurement": "luminal marker FOXA1 expression, increase compared with the vehicle", "setting": "[2]", "result": 1.8, "unit": "fold"}, {"measurement": "luminal marker GATA3 expression, increase compared with the vehicle", "setting": "[2]", "result": 1.8, "unit": "fold"}, {"measurement": "basal marker expression (GSEA)", "setting": "[3]", "result": "relatively low level"}, {"measurement": "luminal signature (GSEA)", "setting": "[3]", "result": "strong luminal signature"}, {"measurement": "cancer lesions in the bladder (H&E)", "setting": "J82 cells", "result": "much smaller cancer lesions"}, {"measurement": "Krt18 expression, increase compared with the vehicle control", "setting": "[4]", "result": 2, "unit": "fold"}, {"measurement": "Krt20 expression, increase compared with the vehicle control", "setting": "[4]", "result": 1.5, "unit": "fold"}, {"measurement": "Upk1a expression, increase compared with the vehicle control", "setting": "[4]", "result": 3, "unit": "fold"}, {"measurement": "Upk1b expression, increase compared with the vehicle control", "setting": "[4]", "result": 2, "unit": "fold"}, {"measurement": "Upk2 expression, increase compared with the vehicle control", "setting": "[4]", "result": 2, "unit": "fold"}, {"measurement": "Upk3a expression, increase compared with the vehicle control", "setting": "[4]", "result": 2.5, "unit": "fold"}, {"measurement": "Upk3b expression, increase compared with the vehicle control", "setting": "[4]", "result": 2, "unit": "fold"}, {"measurement": "methylation level in the CpG shore upstream of the CpG island of the Shh promoter region", "setting": "[5]", "result": 36, "unit": "%"}, {"measurement": "tumor lesions compared with untreated group (H&E)", "setting": "[6]", "result": "smaller tumor lesions"}, {"measurement": "expression of luminal subtype marker Ck18 (immunostaining)", "setting": "Ck18", "result": "increased"}, {"measurement": "methylation level in the CpG shore upstream of the CpG island of the Shh promoter region", "setting": "[7]", "result": 43, "unit": "%"}, {"measurement": "anticancer initiation effect in TM-treated group (stromal Hh response removed)", "setting": "[8]", "result": "reversed"}, {"measurement": "SHH expression, increase compared with untreated control", "setting": "TCC-SUP", "result": 3, "unit": "fold"}, {"measurement": "SHH expression, increase compared with untreated control", "setting": "T24", "result": 7, "unit": "fold"}, {"measurement": "SHH expression, increase compared with untreated control", "setting": "J82", "result": 6, "unit": "fold"}, {"measurement": "growth of bladder tumors", "setting": "[9]; immunocompetent wild-type mice", "result": "completely inhibits"}, {"measurement": "invasive carcinoma (H&E)", "setting": "[9]; treated for 1.5 months, appeared in vehicle control", "result": "no invasive carcinoma appeared"}, {"measurement": "Shh gene expression level, increase compared to the vehicle control", "setting": "Shh gene [10]", "result": 9, "unit": "fold"}, {"measurement": "invasive carcinoma (H&E)", "setting": "[11]", "result": "not found"}]}]}
